Assay results reported in patent publication US20050080140A1, “Method for treating or preventing inflammatory disorders” (AnGes MG, Inc., priority 2003, published 2005).
Entries after “also recorded” stand apart in the source; their conditions may differ.

Columns and labels:
[1] = test system: adhesion between human vascular endothelial cells and monocytic leukocyte U937 cells; assay: Adherence assay of U937 cells to endothelial monolayers; type: cell-based; details: HUVEC
Experimental: HUVEC (2.5×10^4 cells/cm^2) were cultured in 12-well plates. After 24 h, confluent monolayers were used for adherence assays. Monolayers were preincubated in EGM-2 containing 2% FBS, 0 or 10 ng/ml TNF-α, 0 or 10 ng/ml IL-13 and 0 or 10 μM cPGI with or without anti-IL-13 monoclonal antibody (0.5 μg/ml) at 37° C. for 0 to 24 h. Human monocyte leukocyte U937 cells were cultured in RPMI 1640 (Gibco-Invitrogen) containing 10% FBS, 100 U/ml penicillin and […] streptomycin , labeled with 2.5 μM calcein-AM (Molecular Probes, Eugene, Oreg.) at room temperature for 45 min, washed and resuspended in serum-free EGM-2. The calcein-labeled U937 cells (8×10^4 cells/well) were added to pretreated endothelial cells and incubated with cPGI (0, 10 μM), recombinant IL-13 (0, 10 ng/ml) and anti-IL-13 monoclonal antibody (0, 0.5 μg/ml). U937 cells were allowed to adhere to pretreated endothelial cells for 30 min at 37° C. Adherence was assessed with a fluorescence image analyzer (FLA-2000; Fujifilm, Tokyo, Japan). Plates were scanned before and after washing for total and adherent cells, respectively, and relative adherence was calculated (fold of control).

IL-13 = IL-13 ELISA of culture medium of human vascular endothelial cells; type: cell-based; details: 24 h; for endogenous IL-13 expression in PGI2-deprived cells: HUVEC treated with PGIS siRNA, cPGI 10 μM, FIG. 6C
Experimental: Human vascular endothelial cells (1.2×10^4 cells/cm^2) were cultured in EGM-2 containing 2% FBS and several concentrations of cPGI with or without TNF-α for 24 h. Incubation media were collected and stored at −80° C. before assay. Amounts of IL-13 were measured with human IL-13 ELISA system (Amersham Pharmacia Biotech, Buckinghamshire, UK) and amounts of PGI2 were measured as the amounts of 6-keto-PGI1α, a stable metabolite of PGI2, with 6-keto-PGI1α ELISA kit (Cayman Chemical Co., Ann Arbor, Mich.) according to the manufacturers' instructions.
siRNA duplexes with the following sense and antisense sequences were made: PGIS1, 5′-[…]-3′ (SEQ ID NO: 12; sense) and 5′-[…]-3′ (SEQ ID NO: 13; antisense); PGIS2, 5′-[…]-3′ (SEQ ID NO: 14; sense) and 5′-[…]-3′ (SEQ ID NO: 15; antisense); PGIS3, 5′-[…]-3′ (SEQ ID NO: 16; sense) and 5′-[…] (SEQ ID NO: 17; antisense); and PGIS4, 5′-[…]-3′ (SEQ ID NO:, 18; sense) and 5′-[…]-3′ (SEQ ID NO: 19; antisense). siRNAs were synthesized and annealed by Dharmacon Research Inc. (Lafayette, CO). Control non-silencing siRNA, a duplex of sense (5′-UUCUCCGAACGUGUCACGUdTdT-3′; SEQ ID NO: 20) and antisense (5′-ACGUGACACGUUCGGAGAAdTdT-3′; SEQ ID NO: 21) sequences, was purchase from Qiagen (Valencia, Calif.). The cells were initially transfected with 200 pmol per well of the annealed RNA mixture or the same amount of control siRNA using LipofectAMINE2000 (Invitrogen), and 12 h later secondly transfected with the same amount of siRNAs using HVJ-liposome transfection kit (GenomeONE; Ishihara Sangyo, Osaka, Japan) according to the manufacturers' instructions. The cells were retransfected with the siRNAs every 3 days using LipofectAMINE2000 and HVJ-liposome, and used for analyses 10 days after transfection. Microsomal fractions of the cells were prepared and analyzed by immunoblotting with anti-PGIS P4 polyclonal antibody as described previously (Hatae et al., J. Biol. Chem. (2001) 276: 46260-7). The cells treated with siRNAs for 10 days were cultured in fresh EGM-2 containing 2% FBS and TNF-α (0, 10 ng/ml). with or without cPGI (10 μM) for 24 h. The incubation media were collected, and amounts of 6-keto-PGI1α or IL-13 were measured with ELISA kit.

CCCCC[C@H](O)/C=C/[C@@H]1[C@H]2C/C(=C/CCCC(=O)O)C[C@H]2C[C@H]1O [cPGI, carbaprostacyclin]
TNF-α-induced monocytic leukocyte-endothelial cell adhesion ([1]; TNF-α 10 ng/ml plus antibody 0.5 μg/ml, cPGI 10 μM or IL-13 10 ng/ml, 24 h, FIG. 4D lanes 3-5): inhibited
adhesion over time, TNF-α pretreatment in the presence of cPGI ([1]; TNF-α 10 ng/ml, cPGI 10 μM, 0 h to 24 h, FIG. 4E): dramatically inhibited
endogenous IL-13 expression in PGI2-deprived cells (IL-13): significantly increased
endogenous IL-13 expression in PGI2-deprived cells (IL-13; listed as carbaprostacyclin): significantly induced
production of IL-13, exogenous cPGI added to TNF-α (IL-13; HUVEC, TNF-α 0-10 ng/ml with cPGI 0, 2 or 10 μM, dose-dependent, FIG. 4C): enhanced
IL-13 protein in the culture medium (ELISA) (IL-13; HUVEC, cPGI 0, 1, 10 and 100 μM, FIG. 1B): detectable; also recorded: dose-dependent
